Reference: patent US20090311237A1, “Combination therapy using a soluble hyaluronidase and a bisphosphonate” (priority 2008, published 2009)
Where two headings read alike, the source gives them in different places.

Test: Phase 1 Stage 1 clinical pharmacokinetics of SC ZA co-administered with rHuPH20
Assay type: in vivo, human
Conditions: human, serum, sc; for AUC(0-inf): read-out: AUC (0-∞); for Tmax: read-out: Tmax
Experimental: A pharmacokinetic study of zoledronic acid (ZA) co-administered with rHuPH20 in human subjects was conducted. The primary objective of the study was to determine the bioavailability of zoledronic acid dosed via subcutaneous (SC) co-administration with human recombinant hyaluronidase PH20 (rHuPH20). […] The patients were administered the prescribed dosage formulations as follows: Cohorts 1-5 were administered a single subcutaneous infusion in a dosage volume of 100 ml at a rate of 3 mL/min. […] The dosing solution is administered via needle or catheter into the SC space of the left anterior thigh (midway between the anterior iliac crest and the cephalad border of the patella). For cohorts 1-5, the dosing solutions were administered by a controlled rate infusion pump at approximately 3 mL/minute. […] The dosing solutions were administered by syringe push bolus injection. […] Serum concentration of ZA was determined using a qualified LC-MS-MS assay after derivatization with diazomethane (Zhu, L S et al. (2006) Rapid Commun. […] The assay range was from 2.0 to 400 ng/mL with a lower limit of quantitation (LLOQ) at 2.0 ng/mL. […] Non-compartmental analysis was used for derivation of primary and secondary pharmacokinetic (PK) parameters. […] Summary statistics (mean, standard deviation, and median) were calculated using JMP or Microsoft Excel.

[1] = ZA 0.25 mg SC + 24000 U rHuPH20, individual subjects
[2] = ZA 0.25 mg SC + 24000 U rHuPH20, mean, n=3
[3] = ZA 0.25 mg SC + 24000 U rHuPH20, median, n=3
[4] = ZA 0.5 mg SC + 24000 U rHuPH20, individual subjects
[5] = ZA 0.5 mg SC + 24000 U rHuPH20, mean, n=3
[6] = ZA 0.5 mg SC + 24000 U rHuPH20, median, n=3
[7] = ZA 1 mg SC + 24000 U rHuPH20, individual subjects

O=P(O)(O)C(O)(Cn1ccnc1)P(=O)(O)O [ZA, 1-hydroxy-2-(1H-imidazol-1-yl)ethylidene-1,1-bisphosphonic acid]
Cmax [1]: 6.84 ng/mL
AUC(0-inf) [1]: 30.8 ng·h/mL
MRT (ZA 0.25 mg SC + 24000 U rHuPH20, individual subjects, read-out: MRT): 2.93 h
Tmax [1]: 1.06 h
Vd/F (ZA 0.25 mg SC + 24000 U rHuPH20, individual subjects, read-out: Vss/F): 0.435 L/kg
Vd/F (ZA 0.25 mg SC + 24000 U rHuPH20, individual subjects, read-out: Vz/F): 0.402 L/kg
CL/F [2]: 2 mL/min/kg
Cmax [2]: 6.75 ng/mL
AUC(0-inf) [2]: 30.9 ng·h/mL
MRT (ZA 0.25 mg SC + 24000 U rHuPH20, mean, n=3, read-out: MRT): 3.5 h
Tmax [2]: 1.31 h
Vd/F (ZA 0.25 mg SC + 24000 U rHuPH20, mean, n=3, read-out: Vss/F): 0.411 L/kg
Vd/F (ZA 0.25 mg SC + 24000 U rHuPH20, mean, n=3, read-out: Vz/F): 0.364 L/kg
CL/F [3]: 1.8 mL/min/kg
Cmax [3]: 6.84 ng/mL
AUC(0-inf) [3]: 30.8 ng·h/mL
MRT (ZA 0.25 mg SC + 24000 U rHuPH20, median, n=3, read-out: MRT): 3.37 h
Tmax [3]: 1.31 h
Vd/F (ZA 0.25 mg SC + 24000 U rHuPH20, median, n=3, read-out: Vss/F): 0.433 L/kg
Vd/F (ZA 0.25 mg SC + 24000 U rHuPH20, median, n=3, read-out: Vz/F): 0.363 L/kg
MRT (ZA 0.25 mg, SC […] infusion, 100 mL, 3 mL/min, 24000 Units rHuPH20, extrapolated to ∞, individual subjects, read-out: SC MRT): 3.37 h
CL/F [4]: 2.35 mL/min/kg
Cmax [4]: 15.3 ng/mL
AUC(0-inf) [4]: 62.5 ng·h/mL
MRT (ZA 0.5 mg SC + 24000 U rHuPH20, individual subjects, read-out: MRT): 3.19 h
Tmax [4]: 0.81 h
Vd/F (ZA 0.5 mg SC + 24000 U rHuPH20, individual subjects, read-out: Vss/F): 0.451 L/kg
Vd/F (ZA 0.5 mg SC + 24000 U rHuPH20, individual subjects, read-out: Vz/F): 0.456 L/kg
CL/F [5]: 2.08 mL/min/kg
Cmax [5]: 15.5 ng/mL
AUC(0-inf) [5]: 65 ng·h/mL
MRT (ZA 0.5 mg SC + 24000 U rHuPH20, mean, n=3, read-out: MRT): 3.26 h
Tmax [5]: 1.14 h
Vd/F (ZA 0.5 mg SC + 24000 U rHuPH20, mean, n=3, read-out: Vss/F): 0.406 L/kg
Vd/F (ZA 0.5 mg SC + 24000 U rHuPH20, mean, n=3, read-out: Vz/F): 0.407 L/kg
CL/F [6]: 2.18 mL/min/kg
Cmax [6]: 15.3 ng/mL
AUC(0-inf) [6]: 64.4 ng·h/mL
MRT (ZA 0.5 mg SC + 24000 U rHuPH20, median, n=3, read-out: MRT): 3.24 h
Tmax [6]: 1.31 h
Vd/F (ZA 0.5 mg SC + 24000 U rHuPH20, median, n=3, read-out: Vss/F): 0.423 L/kg
Vd/F (ZA 0.5 mg SC + 24000 U rHuPH20, median, n=3, read-out: Vz/F): 0.428 L/kg
CL/F [7]: 2.38 mL/min/kg
Cmax [7]: 30.1 ng/mL
AUC(0-inf) [7]: 122 ng·h/mL
